# Results as given in patent US11999742B2, “Substituted pyrrolo[1,2-b]pyridazines as anthelmintics” (BOEHRINGER INGELHEIM VETMEDICA GMBH, priority 2021, dated 2024).
# Key:
# [1] = system: Microfilaria of Dirofilaria immitis; test: Motility of Dirofilaria immitis microfilariae in microtiter plate, 3 days, dose response; type: cell-based; settings: 72 h, read-out: EC50, motility of D. immitis microfilaria, three days at 37° C., 5% CO2, vs DMSO control
# [2] = system: L4 stage larvae of Dirofilaria immitis; test: Motility of L4 stage Dirofilaria immitis larvae, 3 days, dose response; type: cell-based; settings: 72 h, read-out: EC50, motility of L4 stage D. immitis, three days at 37° C., 5% CO2, vs DMSO control
# [3] = system: Haemonchus contortus L1 larvae; test: Haemonchus contortus larval development L1 to L3, 4 days, dose response; settings: 96 h, read-out: EC50, development of H. contortus larvae from L1 to L3
# Text: Biological Example 2: Screening Method to Test Activity of Compounds Against Haemonchus contortus
structure (smiles),measurement,setting,value
Cc1cc2c(C(C)(C)C)c(C(=O)N[C@H]3CCOc4ccccc43)cnn2c1-c1c(Cl)cc(F)cc1Cl [Compound A487],EC50,[1],10 to 100 nM
same,EC50,[2],< 10 nM
same,EC50,[3],10 to 100 nM
"Cc1cc2c(N(C)C)c(C(=O)N[C@H]3CCOc4ccccc43)cnn2c1-c1cc(F)cc(Cl)c1Cl [Compound A493, 7-(2,3-dichloro-5-fluorophenyl)-N-[(4S)-3,4-dihydro-2H-1-benzopyran-4-yl]-4-(dimethylamino)-6-methylpyrrolo[1,2-b]pyridazine-3-carboxamide]",EC50,[1],< 10 nM
same,EC50,[2],< 10 nM
same,EC50,[3],< 10 nM
Cc1cc2c(C(C)C)c(NC(=O)[C@H]3CCOc4ccccc43)cnn2c1-c1cc(Cl)cc(Cl)c1 [Compound A462],EC50,[1],10 to 100 nM
same,EC50,[2],10 to 100 nM
same,EC50,[3],100 to 1000 nM
CC(C)c1c(C(=O)NN2CCOc3ccccc32)cnn2c(-c3cc(F)cc(Cl)c3Cl)c(Cl)cc12 [Compound A496],EC50,[1],< 10 nM
same,EC50,[2],10 to 100 nM
same,EC50,[3],10 to 100 nM
Cc1cc2c(N3CC(F)(F)C3)c(C(=O)N[C@H]3CCOc4ccccc43)cnn2c1-c1cc(F)cc(Cl)c1Cl [Compound A504],EC50,[1],< 10 nM
same,EC50,[2],< 10 nM
same,EC50,[3],10 to 100 nM
O=C(N[C@H]1CCOc2ccccc21)c1cnn2c(-c3cc(Cl)cc(Cl)c3Cl)c(Cl)cc2c1N1CC(F)(F)C1 [Compound A506],EC50,[1],< 10 nM
same,EC50,[2],< 10 nM
same,EC50,[3],10 to 100 nM
